e = 2'-O-(2-methoxyethyl) (MOE); d = 2'-deoxy (DNA)
Experiments:
CRPC LNCaP xenografts = assay: Castration-resistant LNCaP xenograft in castrated male athymic nude mice; type: in vivo; conditions: week 16 from start of treatment; euthanasia for tumour volume exceeding 10% of body weight
Method: The effects of combination treatment on castration-resistant LNCaP tumor growth were assessed in castrated male athymic nude mice. Male athymic nude mice were inoculated with LNCaP cells in Matrigel in two sites of mouse flank lesion. […]. Custirsen (10 mg/kg/each dose) or SCRB (10 mg/kg/each dose) was injected i.p. once daily for the first week and then three times per week. […] Tumor volume was measured once per week. Serum PSA was determined weekly. PSA doubling time (PSAdt) and velocity were calculated by the log-slope method (PSAt−PSAinitial×e^mt). All animal procedures were performed according to the guidelines of the Canadian Council on Animal Care and appropriate institutional certification.
Male athymic mice (Harlan Sprague-Dawley, Inc.) were injected s.c. with 1×10^6 LNCaP cells. When tumors grow in 150 mm^3 and serum PSA was >50 ng/ml, mice are castrated. […] Each experimental group consisted of 13 mice. […] Tumor volume and serum PSA was measured as previously described (Sowery et al., 2008). All animal procedures were performed according to the guidelines of the Canadian Council on Animal Care. Each three mice xenografts were sacrificed at 7 days after start treatment and the rest were harvested the end of the study and snap-frozen in liquid nitrogen. […]

[1] = test system: Akt and p90Rsk phosphorylation; assay: Western blot of Akt and p90Rsk phosphorylation; type: cell-based, human; conditions: FIG. 42B
Method: YB-1 binds to CLU promoter leading to increased CLU expression after ER stress (Shiota et al., 2011). […]. Western blot analysis is done using phospho Akt, phospho ERK, Akt and ERK antibodies. […]. […] After 48 h treatment, western blot analysis is done using phospho Akt, phospho ERK, phospho mTOR, phospho P70S6K, Akt, ERK, mTOR and P70S6K antibodies.

clusterin (CLU) = assay: Western blot of clusterin (CLU) expression after AR pathway inhibition; type: cell-based, human
Method: The immune complexes were recovered with protein-G sepharose for 2 h and then washed with radioimmunoprecipitation assay buffer (RIPA) at least thrice, centrifuged, and submitted to SDS-PAGE, followed by Western blotting. […] Cells are harvested and performed for western blot analysis.

LNCaP cells [2] = assay: Autophagy induction; type: cell-based, human
[3] = test system: GRP78, ATF4, IRE1, CHOP and cleaved-ATF6; assay: ER stress marker expression after AR1; type: cell-based; conditions: concomitant with CLU induction
Excerpt: ER stress activates a complex intracellular signaling pathway, called the unfolded protein response (UPR), which is tailored to re-establish protein homeostasis (proteostasis) by inhibiting protein translation and promoting ER-associated protein degradation via the ubiquitin-proteasome system (UPS).

[4] = humans; cited from earlier work
LNCaP cells [5] = assay: Flow cytometry of apoptotic sub-G1 fraction (propidium iodide staining); type: cell-based, human; conditions: 500 nmol/L custirsen or ScrB, 10 μmol/L AR1, 48 hrs
Method: After a time course exposure, cell growth was measured by crystal violet assay as previously described (cleave et al., 2005). Detection and quantitation of apoptotic cell cycle population were analyzed by flow-cytometry (Beckman Coulter Epics Elite; Beckman, Inc.) based on 2N and 4N DNA content as previously described (Lamoureux et al., 2011). For CSS condition, LNCaP cells were plated in RPMI with 5% FBS switched to CSS at the next day, and treatment was started same as FBS condition. Each assay was done in triplicate three times.
Combination treatment enhances LNCaP apoptosis in flow cytometry analysis. […] The proportion of cells in sub-G0, G0-G1, S, G2-M is determined by propidium iodide staining. […] P value represents between treatment arms and their respective controls *p<0.05, **p<0.01, ***p<0.001 (Wilcoxon matched-pairs test).

[6] = test system: AR transcriptional activity; assay: PSA-luciferase reporter assay of R1881 induced AR transcriptional activity; type: cell-based, human; conditions: LNCaP cells; 500 nmol/L custirsen, 10 μmol/L AR1, 1 nmol/L R1881
Method: Effect of combination treatment on AR transactivation and translocation. […] Cells were harvested, and luciferase activity was determined. Columns represent means of at least three independent experiments done in triplicate. PSA activation was normalized Renilla-luciferase activity.
LNCaP cells were seeded at a density of 5×10^4 in 12-well plates and transfected the following day with custirsen or SCRB. […] Reporter assays were normalized to Renilla and luciferase activity expressed by Firefly to Renilla ratio in arbitrary light units. All experiments were carried out in triplicate wells and repeated five times using different preparations of plasmids.
The effects of combination treatment on androgen-induced, AR-mediated gene activation were evaluated.

CRPC = conditions: combined with docetaxel chemotherapy; cited from earlier work
AR = target: T1, AR (Homo sapiens, UniProt P10275, T878A); assay: Western blot of AR protein expression; conditions: FIG. 17: LNCaP, 500 nM custirsen 48 h, then 10 μM AR1 48 hours
T1 sequence (P10275 1-920 T878A): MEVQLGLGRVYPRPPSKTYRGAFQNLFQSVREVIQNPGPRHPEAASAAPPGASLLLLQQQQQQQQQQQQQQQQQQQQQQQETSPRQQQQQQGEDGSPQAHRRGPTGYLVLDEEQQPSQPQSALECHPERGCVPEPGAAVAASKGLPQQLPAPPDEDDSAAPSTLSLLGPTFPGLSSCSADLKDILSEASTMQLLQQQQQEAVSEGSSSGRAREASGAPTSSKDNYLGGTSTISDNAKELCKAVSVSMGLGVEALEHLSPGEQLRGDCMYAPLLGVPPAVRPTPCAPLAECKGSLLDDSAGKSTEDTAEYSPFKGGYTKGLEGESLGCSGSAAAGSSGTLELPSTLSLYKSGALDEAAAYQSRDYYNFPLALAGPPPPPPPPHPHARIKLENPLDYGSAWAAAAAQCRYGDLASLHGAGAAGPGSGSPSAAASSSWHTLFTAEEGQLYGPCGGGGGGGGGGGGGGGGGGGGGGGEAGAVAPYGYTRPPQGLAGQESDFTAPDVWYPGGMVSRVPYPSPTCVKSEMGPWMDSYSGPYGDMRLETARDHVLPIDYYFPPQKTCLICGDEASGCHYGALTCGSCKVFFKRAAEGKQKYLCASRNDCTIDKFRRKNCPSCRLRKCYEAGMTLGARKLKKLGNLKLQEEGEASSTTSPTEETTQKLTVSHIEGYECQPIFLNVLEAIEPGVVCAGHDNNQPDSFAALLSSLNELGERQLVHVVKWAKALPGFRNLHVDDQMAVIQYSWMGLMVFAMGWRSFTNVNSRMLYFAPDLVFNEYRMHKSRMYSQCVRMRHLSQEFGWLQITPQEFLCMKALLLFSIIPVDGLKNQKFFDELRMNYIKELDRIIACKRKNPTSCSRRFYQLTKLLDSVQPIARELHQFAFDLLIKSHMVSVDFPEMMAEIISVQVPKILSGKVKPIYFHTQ
Method: Cells (1×10^6) were seeded in 10 cm dishes with RPMI medium containing 5% FBS. The next day, cells were transfected with 500 nM custirsen or control for 48 h.
AR expression is detected by western blot. […] “OTR” means cells treated with oligofectamime only.

In the case of `CNC(=O)c1ccc(N2C(=S)N(c3ccc(C#N)c(C(F)(F)F)c3)C(=O)C2(C)C)cc1F` [AR1, 4-(3-(4-cyano-3-(trifluoromethyl)phenyl)-5,5-dimethyl-4-oxo-2-thioxoimidazolidin-1-yl)-2-fluoro-N-methylbenzamide], the overall survival (CRPC LNCaP xenografts) is reported as “about 40%”, the “Akt and p90Rsk phosphorylation” value [1] is reported as “increases” and the clusterin protein expression (clusterin (CLU); LNCaP, 10 μmol/L for 48 hrs, 5% FBS or 5% CSS, western blot) is reported as “strongly increases”. The autophagy (LNCaP cells [2]) was “induces autophagy”, the ER stress markers [3] was “up-regulation” and the maximum tolerated dose [4] was 240 mg/day. The side effects [4] was “fatigue”.

In the case of `CC(=O)O[C@@H]1[C@@H](OC(C)=O)[C@@H](O)[C@H](Oc2c(-c3ccc(O)cc3)oc3cc(O)cc(O)c3c2=O)O[C@H]1C` [SL101], the “effect on AR1 induced up-regulation of CLU” value (clusterin (CLU); inhibitor added with AR1) is reported as “abrogates”.

With “ScrB: scrambled antisense oligonucleotide control, 5′-CAGCGCTGACAACAGTTTCAT-3′ (SEQ ID NO: 44) (2'-O-methoxyethyl modified control oligonucleotide, pattern not given here, further chemistry not given here)” the “apoptosis (sub-G1 fraction)” value (LNCaP cells [5]) was 15.2%.

For “custirsen: antisense oligonucleotide reducing clusterin expression, CAGCAGCAGAGTCTTCATCAT (Seq. ID No.: 3), phosphorothioate backbone, 2′-O-methoxyethyl at nucleotides 1-4 and 18-21 (sugars from the 5' end e4 d13 e4, all phosphorothioate, methylation of C not given here; listed as Homo sapiens)”, the “reduction of R1881 induced AR transcriptional activity (PSA luciferase transactivation)” value [6] is given as 90%, the HR (CRPC) is given as 0.50 and the “gain in overall survival” value (CRPC) is given as 7 month. The reduced death rate (CRPC) was 50%, the “apoptosis (sub-G1 fraction)” value (LNCaP cells [5]) was 20% and the “reduction of AR protein expression” value (AR) was “no effect”.

— patent publication US20140088178A1, “COMBINATION OF ANTI-CLUSTERIN OLIGONUCLEOTIDE WITH ANDROGEN RECEPTOR ANTAGONIST FOR THE TREATMENT OF PROSTATE CANCER” (THE UNIVERSITY OF BRITISH COLUMBIA, priority 2011, published 2014)
